Assay: Solubility test of the ester compound in test solvents
Type: physicochemical
Experimental: The solubility tests were performed with the diisopropyl ester of N,N′-bis(benzyl)ethylenediamine-N,N′-diacetic acid.
The test solvent was poured into a beaker, an amount of the ester compound was added with magnetic stirring and the mixture was left to stand for between 1 hour and 24 hours. The mixture was then heated to 50° C. and then cooled to room temperature (25° C.) over 24 hours. The system was then observed to see if the amount of the ester compound introduced recrystallized or remained dissolved.
The amount of ester compound that can be dissolved in the test solvent was determined in this manner. The maximum value corresponds to the amount at and above which the ester compound stops dissolving in the evaluated solvent.

**Q.** With CC(C)OC(=O)CN(CCN(CC(=O)OC(C)C)Cc1ccccc1)Cc1ccccc1 [diisopropyl ester of N,N′-bis(benzyl)ethylenediamine-N,N′-diacetic acid] as the compound, how does the “Weight % of dissolved ester compound” value (solvent: 2-Ethylhexyl salicylate, 25° C.) read?
**A.** 10 Weight %

**Q.** What about the “Weight % of dissolved ester compound” value (solvent: 2-Octyldodecanol, 25° C.) of the same compound?
**A.** 10 Weight %

**Q.** And the “Weight % of dissolved ester compound” value (solvent: Apricot oil, 25° C.)?
**A.** 12 Weight %

**Q.** And the “Weight % of dissolved ester compound” value (solvent: Butylene glycol, 25° C.)?
**A.** 1 Weight %

**Q.** And the “Weight % of dissolved ester compound” value (solvent: Cyclohexasiloxane, 25° C.)?
**A.** 4.7 Weight %

**Q.** And the “Weight % of dissolved ester compound” value (solvent: Cyclopentasiloxane, 25° C.)?
**A.** 4.5 Weight %

**Q.** What about the “Weight % of dissolved ester compound” value (solvent: Dimethyl isosorbide, 25° C.) of the same compound?
**A.** 38 Weight %

**Q.** What about the “Weight % of dissolved ester compound” value (solvent: Dipropylene glycol, 25° C.) of the same compound?
**A.** 10.7 Weight %

**Q.** And the “Weight % of dissolved ester compound” value (solvent: Ethanol, 25° C.)?
**A.** 8 Weight %

**Q.** What about the “Weight % of dissolved ester compound” value (solvent: Glycerol, 25° C.) of the same compound?
**A.** 1 Weight %

**Q.** What about the “Weight % of dissolved ester compound” value (solvent: Hexylene glycol, 25° C.) of the same compound?
**A.** 11.5 Weight %

**Q.** And the “Weight % of dissolved ester compound” value (solvent: Hydrogenated isoparaffin (Parleam from NOF), 25° C.)?
**A.** 9 Weight %

**Q.** What about the “Weight % of dissolved ester compound” value (solvent: Isononyl isononanoate, 25° C.) of the same compound?
**A.** 16 Weight %

**Q.** And the “Weight % of dissolved ester compound” value (solvent: Isopropyl N-lauroylsarcosinate (Eldew SL-205 from Ajinomoto), 25° C.)?
**A.** 18 Weight %

**Q.** What about the “Weight % of dissolved ester compound” value (solvent: Isopropyl myristate, 25° C.) of the same compound?
**A.** 11.5 Weight %

**Q.** And the “Weight % of dissolved ester compound” value (solvent: Isopropyl palmitate, 25° C.)?
**A.** 9 Weight %

**Q.** And the “Weight % of dissolved ester compound” value (solvent: Phenyl trimethicone (Dow Corning 556), 25° C.)?
**A.** 12 Weight %

**Q.** What about the “Weight % of dissolved ester compound” value (solvent: Propylene glycol, 25° C.) of the same compound?
**A.** 1 Weight %

**Q.** And the “Weight % of dissolved ester compound” value (solvent: Squalane, 25° C.)?
**A.** 9 Weight %

**Q.** What about the “Weight % of dissolved ester compound” value (solvent: Water, heated to 50° C., cooled to room temperature (25° C.) over 24 hours) of the same compound?
**A.** Insoluble
